Reference: ChEMBL document CHEMBL5143676, “Piezo-Type Mechanosensitive Ion Channel Component 1 (Piezo1): A Promising Therapeutic Target and Its Modulators” (J Med Chem, 2022)
Bridge positions count the residues as written; N and C are the ends. Peptide text beside a SMILES is read from it.

Columns and labels:
[1] = target: T1, Piezo-type mechanosensitive ion channel component 1 (Mus musculus, UniProt E2JF22); test: Inhibition of mouse Piezo1
[2] = target: T2, Piezo-type mechanosensitive ion channel component 1 (Homo sapiens, UniProt Q92508); test: Agonist activity at human Piezo1 transfected in human HEK293T cells by FLIPR assay; assay type: cell-based
T2 sequence (Q92508 whole entry): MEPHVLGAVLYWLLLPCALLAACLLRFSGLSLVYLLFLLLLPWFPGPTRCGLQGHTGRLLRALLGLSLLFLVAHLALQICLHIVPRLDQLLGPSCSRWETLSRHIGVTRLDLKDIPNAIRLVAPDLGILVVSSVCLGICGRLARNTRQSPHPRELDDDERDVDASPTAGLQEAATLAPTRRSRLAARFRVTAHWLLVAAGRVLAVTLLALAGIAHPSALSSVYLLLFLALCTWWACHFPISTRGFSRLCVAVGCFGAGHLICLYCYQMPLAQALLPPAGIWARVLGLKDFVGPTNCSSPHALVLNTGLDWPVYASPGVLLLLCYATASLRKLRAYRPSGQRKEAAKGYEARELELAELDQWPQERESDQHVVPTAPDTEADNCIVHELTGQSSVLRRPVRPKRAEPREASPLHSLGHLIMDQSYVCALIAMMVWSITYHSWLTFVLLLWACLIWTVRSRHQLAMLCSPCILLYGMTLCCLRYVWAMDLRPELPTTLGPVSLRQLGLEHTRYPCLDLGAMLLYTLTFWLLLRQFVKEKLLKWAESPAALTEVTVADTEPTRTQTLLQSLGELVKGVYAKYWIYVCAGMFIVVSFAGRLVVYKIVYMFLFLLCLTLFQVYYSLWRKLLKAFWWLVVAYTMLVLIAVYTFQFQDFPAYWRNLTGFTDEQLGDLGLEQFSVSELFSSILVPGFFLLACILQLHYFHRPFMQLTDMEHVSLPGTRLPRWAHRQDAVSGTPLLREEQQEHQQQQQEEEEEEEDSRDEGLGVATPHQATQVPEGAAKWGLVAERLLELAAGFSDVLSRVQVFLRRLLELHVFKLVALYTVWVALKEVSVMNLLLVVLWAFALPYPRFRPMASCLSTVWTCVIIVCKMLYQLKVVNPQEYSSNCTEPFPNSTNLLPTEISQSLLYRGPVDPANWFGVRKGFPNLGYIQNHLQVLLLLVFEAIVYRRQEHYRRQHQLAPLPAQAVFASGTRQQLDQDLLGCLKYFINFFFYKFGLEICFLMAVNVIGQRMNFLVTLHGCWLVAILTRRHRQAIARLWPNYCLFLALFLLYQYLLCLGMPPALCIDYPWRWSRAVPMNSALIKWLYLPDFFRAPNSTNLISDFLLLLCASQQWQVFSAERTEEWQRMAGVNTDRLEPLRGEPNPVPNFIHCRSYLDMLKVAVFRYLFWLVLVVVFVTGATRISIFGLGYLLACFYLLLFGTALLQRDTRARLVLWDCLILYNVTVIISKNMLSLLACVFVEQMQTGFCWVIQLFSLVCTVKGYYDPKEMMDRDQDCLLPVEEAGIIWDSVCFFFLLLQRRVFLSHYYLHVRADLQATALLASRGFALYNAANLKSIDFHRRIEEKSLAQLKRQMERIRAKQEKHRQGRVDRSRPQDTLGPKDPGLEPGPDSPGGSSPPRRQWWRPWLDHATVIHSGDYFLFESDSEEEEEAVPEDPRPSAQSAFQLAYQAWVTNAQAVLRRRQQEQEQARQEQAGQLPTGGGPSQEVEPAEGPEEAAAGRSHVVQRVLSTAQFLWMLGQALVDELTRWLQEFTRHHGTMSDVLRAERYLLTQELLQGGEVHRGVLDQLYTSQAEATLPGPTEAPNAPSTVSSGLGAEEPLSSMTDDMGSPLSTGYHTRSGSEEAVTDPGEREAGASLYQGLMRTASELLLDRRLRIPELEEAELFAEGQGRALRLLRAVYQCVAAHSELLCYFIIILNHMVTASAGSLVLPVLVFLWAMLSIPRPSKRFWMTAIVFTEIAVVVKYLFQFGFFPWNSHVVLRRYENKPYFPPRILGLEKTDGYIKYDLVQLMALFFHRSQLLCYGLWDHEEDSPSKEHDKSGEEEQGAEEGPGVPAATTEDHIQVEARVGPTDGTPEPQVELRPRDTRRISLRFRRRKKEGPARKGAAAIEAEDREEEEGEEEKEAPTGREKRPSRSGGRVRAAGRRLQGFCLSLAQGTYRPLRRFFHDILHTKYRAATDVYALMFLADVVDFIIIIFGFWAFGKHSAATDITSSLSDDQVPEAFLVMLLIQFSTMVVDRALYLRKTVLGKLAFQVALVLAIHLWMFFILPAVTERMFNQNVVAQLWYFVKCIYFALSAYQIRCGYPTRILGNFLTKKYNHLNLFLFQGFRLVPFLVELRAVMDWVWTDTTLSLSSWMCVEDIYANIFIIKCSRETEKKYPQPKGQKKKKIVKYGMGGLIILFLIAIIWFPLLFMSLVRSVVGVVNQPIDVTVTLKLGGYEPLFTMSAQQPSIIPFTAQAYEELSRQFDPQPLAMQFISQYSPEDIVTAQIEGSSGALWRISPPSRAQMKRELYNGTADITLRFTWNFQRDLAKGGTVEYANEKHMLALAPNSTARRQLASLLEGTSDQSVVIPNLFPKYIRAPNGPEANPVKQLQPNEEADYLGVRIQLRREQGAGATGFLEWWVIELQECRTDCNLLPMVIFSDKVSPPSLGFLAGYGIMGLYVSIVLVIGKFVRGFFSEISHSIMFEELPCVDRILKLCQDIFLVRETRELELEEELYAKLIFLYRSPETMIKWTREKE

[3] = target: T1, Piezo-type mechanosensitive ion channel component 1; test: Agonist activity at mouse Piezo1 transfected in human HEK293T cells by FLIPR assay; assay type: cell-based
[4] = target: T1, Piezo-type mechanosensitive ion channel component 1; test: Binding affinity to mouse Piezo1 assessed as dissociation constant by SPR assay
[5] = target: T2, Piezo-type mechanosensitive ion channel component 1; test: Inhibition of Piezo1 (unknown origin) transfected in human HEK293 cells assessed as rightward shift in pressure-gating curve at 50 mV at 1 to 4 uM; assay type: cell-based; settings: dose 1-4 µM
[6] = target: T2, Piezo-type mechanosensitive ion channel component 1; test: Binding affinity to Piezo1 (unknown origin) transfected in human HEK293 cells assessed as equilibrium constant at 40 mmHg/+50 mV; assay type: cell-based

T1 sequence (E2JF22 whole entry): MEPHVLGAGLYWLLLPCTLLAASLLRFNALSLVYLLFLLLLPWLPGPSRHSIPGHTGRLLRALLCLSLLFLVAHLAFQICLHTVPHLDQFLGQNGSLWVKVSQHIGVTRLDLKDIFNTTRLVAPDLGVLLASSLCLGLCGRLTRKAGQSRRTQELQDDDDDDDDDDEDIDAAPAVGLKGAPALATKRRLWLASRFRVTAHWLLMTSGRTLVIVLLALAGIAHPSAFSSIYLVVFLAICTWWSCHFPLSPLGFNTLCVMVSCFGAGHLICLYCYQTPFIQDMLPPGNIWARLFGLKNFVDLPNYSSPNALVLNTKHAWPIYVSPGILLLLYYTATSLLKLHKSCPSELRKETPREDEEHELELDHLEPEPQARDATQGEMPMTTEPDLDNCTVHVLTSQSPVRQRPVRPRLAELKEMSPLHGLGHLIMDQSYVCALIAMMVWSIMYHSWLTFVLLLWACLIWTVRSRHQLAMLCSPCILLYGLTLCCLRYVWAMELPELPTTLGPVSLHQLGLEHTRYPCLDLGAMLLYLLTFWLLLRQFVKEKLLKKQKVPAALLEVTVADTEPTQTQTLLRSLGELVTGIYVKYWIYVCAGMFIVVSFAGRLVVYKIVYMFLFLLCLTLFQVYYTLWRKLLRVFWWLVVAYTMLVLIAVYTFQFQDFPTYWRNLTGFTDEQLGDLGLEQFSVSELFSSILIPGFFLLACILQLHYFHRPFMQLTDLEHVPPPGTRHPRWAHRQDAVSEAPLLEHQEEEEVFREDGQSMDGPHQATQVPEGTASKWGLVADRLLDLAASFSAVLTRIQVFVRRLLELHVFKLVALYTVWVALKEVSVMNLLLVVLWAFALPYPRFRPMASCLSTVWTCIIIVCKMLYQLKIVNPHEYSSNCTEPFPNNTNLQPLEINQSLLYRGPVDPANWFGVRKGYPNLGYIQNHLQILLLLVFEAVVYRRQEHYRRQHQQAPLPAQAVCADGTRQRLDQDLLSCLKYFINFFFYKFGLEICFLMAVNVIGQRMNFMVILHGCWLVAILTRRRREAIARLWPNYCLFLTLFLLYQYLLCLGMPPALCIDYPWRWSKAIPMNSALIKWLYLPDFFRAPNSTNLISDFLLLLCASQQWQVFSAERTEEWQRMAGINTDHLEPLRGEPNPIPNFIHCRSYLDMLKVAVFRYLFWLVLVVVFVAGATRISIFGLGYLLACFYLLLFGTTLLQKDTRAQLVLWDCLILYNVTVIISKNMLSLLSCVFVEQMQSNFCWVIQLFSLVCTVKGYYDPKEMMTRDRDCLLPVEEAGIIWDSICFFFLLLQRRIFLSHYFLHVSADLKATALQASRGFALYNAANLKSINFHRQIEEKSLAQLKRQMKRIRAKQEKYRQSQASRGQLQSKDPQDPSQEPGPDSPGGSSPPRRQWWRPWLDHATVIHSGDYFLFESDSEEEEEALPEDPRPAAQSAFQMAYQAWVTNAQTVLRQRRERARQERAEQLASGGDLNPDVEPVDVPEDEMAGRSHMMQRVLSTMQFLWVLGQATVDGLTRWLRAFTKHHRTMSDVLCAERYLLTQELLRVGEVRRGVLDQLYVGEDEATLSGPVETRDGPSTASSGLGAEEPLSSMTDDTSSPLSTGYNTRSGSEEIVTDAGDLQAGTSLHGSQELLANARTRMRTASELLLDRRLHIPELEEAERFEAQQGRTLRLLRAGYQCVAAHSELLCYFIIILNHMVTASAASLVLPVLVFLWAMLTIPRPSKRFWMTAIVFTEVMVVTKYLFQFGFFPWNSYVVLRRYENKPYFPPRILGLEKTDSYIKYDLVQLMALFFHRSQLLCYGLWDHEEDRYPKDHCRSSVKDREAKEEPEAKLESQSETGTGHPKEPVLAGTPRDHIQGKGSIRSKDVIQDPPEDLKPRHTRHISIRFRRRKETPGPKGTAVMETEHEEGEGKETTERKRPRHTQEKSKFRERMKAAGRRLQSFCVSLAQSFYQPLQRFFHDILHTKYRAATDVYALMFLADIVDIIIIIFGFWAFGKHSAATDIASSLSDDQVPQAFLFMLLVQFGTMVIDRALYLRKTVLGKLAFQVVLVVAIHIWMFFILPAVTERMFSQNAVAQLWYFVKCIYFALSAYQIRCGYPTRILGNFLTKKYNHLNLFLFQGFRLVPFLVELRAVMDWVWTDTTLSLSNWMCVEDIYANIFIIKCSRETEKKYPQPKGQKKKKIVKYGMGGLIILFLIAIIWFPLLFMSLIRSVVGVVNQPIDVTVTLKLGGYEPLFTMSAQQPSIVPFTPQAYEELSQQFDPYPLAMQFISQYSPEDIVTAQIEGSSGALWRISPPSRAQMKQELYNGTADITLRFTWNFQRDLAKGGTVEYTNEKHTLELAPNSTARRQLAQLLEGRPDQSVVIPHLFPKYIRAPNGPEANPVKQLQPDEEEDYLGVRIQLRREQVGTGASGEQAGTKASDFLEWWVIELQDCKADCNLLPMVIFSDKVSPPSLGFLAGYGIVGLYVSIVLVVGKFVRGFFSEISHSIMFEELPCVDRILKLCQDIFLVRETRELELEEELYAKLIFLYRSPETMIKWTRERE

Compound: Cc1oc(-c2ccccc2)cc1C(=O)O
- EC50 [1]: 200 µM

Compound: Clc1cccc(Cl)c1CSc1nnc(-c2cnccn2)s1
- EC50 [2]: 26.6 µM
- EC50 [3]: 17.1 µM

Compound: Cc1oc(-c2cccs2)cc1C(=O)O
- Kd [4]: 2240 µM

Compound: CC(C)C[C@@H]1NC(=O)[C@@H](NC(=O)CN)CSSC[C@@H]2NC(=O)[C@@H]3CSSC[C@@H](C(=O)N[C@@H](CC(N)=O)C(=O)N[C@@H](Cc4ccccc4)C(=O)N[C@@H](CO)C(=O)N[C@@H](Cc4ccccc4)C(N)=O)NC(=O)[C@H](CC(C)C)NC(=O)[C@H](CCCCN)NC(=O)[C@H](Cc4ccccc4)NC(=O)[C@H](CC(C)C)NC(=O)[C@H](CCCCN)NC(=O)[C@H](CO)NC(=O)[C@H](CSSC[C@H](NC(=O)[C@H](CCCCN)NC(=O)[C@H](Cc4c[nH]c5ccccc45)NC(=O)[C@H](Cc4c[nH]c5ccccc45)NC(=O)[C@H](Cc4ccccc4)NC(=O)[C@H](CCC(=O)O)NC1=O)C(=O)N[C@@H](CC(N)=O)C(=O)N1CCC[C@H]1C(=O)N[C@@H](CC(N)=O)C(=O)N[C@@H](CC(=O)O)C(=O)N[C@@H](CC(=O)O)C(=O)N[C@@H](CCCCN)C(=O)N3)NC(=O)[C@H](CCCCN)NC(=O)[C@H](CC(C)C)NC(=O)[C@H](CCCCN)NC(=O)[C@@H]1CCCN1C(=O)[C@H](CCCNC(=N)N)NC2=O (H-GCLEFWWKCNPNDDKCCRPKLKCSKLFKLCNFSF-NH2; disulfide 2-17, 9-23, 16-30)
- Activity [5]: 30 mmHg
- Ke [6]: 155 nM
